Assay type in all cases: cell-based
The subject of test [1] is Con-NCI-H82 cell (NCI-H82 transfected with empty virus vector). Briefly: Cell viability assay (Promega CellTiter-Glo), inhibitory effect on Con-NCI-H82 cell. The note with it: Homo sapiens. As for the experimental part:
(§1) The role of expression level of NNMT gene and DNMT1 in the sensitivity of NCI-H82 cell to the compounds prepared in the Examples of the present invention was determined
(§2) The expression of NNMT protein in NCI-H82 cell was overexpressed by inserting the NNMT gene into NCI-H82 cell using a viral vector, and the NNMT protein-overexpressing NCI-H82 cell (ov-NNMT NCI-H82 cell) was obtained. The expression of DNMT1 in NCI-H82 cell was knocked down transfecting (the by shRNA nucleotide sequence of shRNA was […] TTTTTG (SEQ ID No: 2)) using a viral vector, and the NCI-H82 cell with low expression of DNMT1 protein (sh-DNMT1 NCI-H82 cell) was obtained. The control NCI-H82 cell (Con-NCI-H82 cell) was obtained by transfecting NCI-H82 cell with empty virus vector without carrying NNMT gene and shRNA. The expressing content of NNMT protein and DNMT1 protein in the Con-NCI-H82 cell, the expressing content of NNMT protein in the ov-NNMT NCI-H82 cell, and the expressing content of DNMT1 protein in the sh-DNMT1 NCI-H82 cell were detected using Western Blot assay (as shown in FIG. 15 and FIG. 16), it could be seen from FIG. 15 and FIG. 16 that the NNMT protein was overexpressed in the ov-NNMT NCI-H82 cell and the expression of DNMT1 protein was knocked down (i.e, low expression) in the sh-DNMT1 NCI-H82 cell compared with the expression level of NNMT protein and DNMT protein in the Con-NCI-H82 cell.
On the technique in general: ATP-based viability assays read luminescence as a measure of living cells.

For test [2], the system named is ov-NNMT NCI-H82 cell (NNMT protein-overexpressing NCI-H82). Briefly: Cell viability assay (Promega CellTiter-Glo), inhibitory effect on ov-NNMT NCI-H82 cell. The note with it: Homo sapiens. The method, then:
as §1, §2

The test system of test [3] is sh-DNMT1 NCI-H82 cell (DNMT1 knocked down NCI-H82). The test can be described thus: Cell viability assay (Promega CellTiter-Glo), inhibitory effect on sh-DNMT1 NCI-H82 cell. As to conditions: Homo sapiens, NCI-H82 with DNMT1 knocked down by shRNA. As for the experimental part: as §1, §2
Test [4] relates to NCI-H82 (human small cell lung cancer cell). The test can be described thus: Cell viability assay (Promega CellTiter-Glo), inhibitory effect on NCI-H82. As to conditions: 72 h, 3 days of culture. The method, then:
(§3) The inhibitory effect of the compounds prepared in the Examples of the present invention on various tumor cell lines was detected using cell viability assay reagent.
(§4) Cell viability was detected using the Promega CellTiter-Glo kit, cell viability was determined by directly measuring intracellular ATP content. In the experiment, the ICso value of the compounds prepared in the Examples of the present invention on various tumor cell lines was detected.
(§5) Each tumor cell was cultured in relevant medium. After cell passage, the gradient diluted compounds prepared in the Examples of the present invention was added. After 3 days of culture, the relevant IC50 (50% inhibiting concentration) was measured. The name, source and culture conditions of each tumor cell line were as follows:
Cell line NCI-H82 (ATCC, No. HTB-175) was cultured in 10% fetal bovine serum-containing RPMI1640 medium (+P/S).

Test [5] deals with SW48 (human colon adenocarcinoma cell). The test can be described thus: Cell viability assay (Promega CellTiter-Glo), inhibitory effect on SW48. As to conditions: 72 h, 3 days of culture. As for the experimental part:
as §3, §4, §5
Cell line SW48 (ATCC, No. CCL-231) was cultured in 10% fetal bovine serum-containing Leibovitz's L-15 medium (+P/S).

The test system of test [6] is G-401 (human renal carcinoma Wilms cell). The test can be described thus: Cell viability assay (Promega CellTiter-Glo), inhibitory effect on G-401. The note with it: 72 h, 3 days of culture. As for the experimental part:
as §3, §4, §5
Cell line G-401 (ATCC, No. CRL-1441) was cultured in 10% fetal bovine serum-containing McCoy's 5a medium (+P/S).

Test [7] concerns MDA-MB-453 (breast cancer cell). The test can be described thus: Cell viability assay (Promega CellTiter-Glo), inhibitory effect on MDA-MB-453. As to conditions: Homo sapiens, 72 h, 3 days of culture. As for the experimental part: as §3, §4, §5
Cell line MDA-MB-453 (ATCC, No. HTB-131) was cultured in 10% fetal bovine serum-containing Leibovitz's L-15 medium (+P/S).

Test [8] has as its system CFPAC-1 (human pancreatic cancer cell). Briefly: Cell viability assay (Promega CellTiter-Glo), inhibitory effect on CFPAC-1. The note with it: 72 h, 3 days of culture. As for the experimental part:
as §3, §4, §5
Cell line CFPAC-1 (ATCC, No. CRL-1918) was cultured in 10% fetal bovine serum-containing IMDM medium (+P/S).

For test [9], the system named is 786-O (clear cell renal cell adenocarcinoma cell). Briefly: Cell viability assay (Promega CellTiter-Glo), inhibitory effect on 786-O. As to conditions: Homo sapiens, 786-0, 72 h, 3 days of culture. The method, then: as §3, §4, §5
Cell line 786-0 (ATCC, No. CRL-1932) was cultured in 10% fetal bovine serum-containing RPMI1640 medium (+P/S).

Test [10] has as its system SF126 (human glioblastoma multiforme cell). Briefly: Cell viability assay (Promega CellTiter-Glo), inhibitory effect on SF126. As to conditions: 72 h, SF-126, 3 days of culture, Table 3, read-out: inhibitory effect on SF-126 (IC50). The method, then:
as §3, §4, §5
Cell line SF126 (JCRB, No. IFO50286) was cultured in 10% fetal bovine serum-containing EMEM medium (+P/S).
(§6) The inhibitory effect of the compounds prepared in the Examples of the present invention on various brain tumor cell lines was detected using cell viability assay reagent.
(§7) Cell viability was detected using the Promega CellTiter-Glo kit, cell viability was determined by directly measuring intracellular ATP content. In the experiment, the IC50 value of the compounds prepared in the Examples of the present invention on various brain tumor cell lines was detected.

Test [11] has as its system GB-1 (human brain glioblastoma cell). The test can be described thus: Cell viability assay (Promega CellTiter-Glo), inhibitory effect on GB-1. As to conditions: 72 h, 3 days of culture, Table 3, read-out: inhibitory effect on GB-1 (IC50). The method, then: as §3, §4, §5
Cell line GB-1 (JCRB, No. IFO50489) was cultured in 10% fetal bovine serum-containing DMEM medium (+P/S).
as §6, §7

Setting [12] is: NCI-H82 transfected with empty virus vector (control), CellTiter-Glo, read-out: inhibitory effect on Con-NCI-H82 (IC50).
The mark [13] stands for this setting: NCI-H82, read-out: inhibitory effect on Con-NCI-H82 (IC50).

Like-named read-outs stand apart in the source and are kept apart here.

For orientation: IC50 means the midpoint of a concentration-inhibition curve. In the case of `CCCCCCCCCCOc1c(OC)ccc2cc3[n+](cc12)CCc1cc2c(cc1-3)OCO2` [compound AB31716], the results for the IC50 in [1] (setting [12]), in test [2] and in test [3] were 0.07 µM, 0.38 µM and 0.35 µM, respectively.
With `CCCCCCCCCCCCOc1c(OC)ccc2cc3[n+](cc12)CCc1cc2c(cc1-3)OCO2` [compound AB31717], the IC50 was found to be 0.11 µM in [1] (setting [12]), 0.25 µM in [2] and 0.36 µM in [3].
Regarding `CCCCC(=O)Oc1c(OC)ccc2cc3[n+](cc12)CCc1cc2c(cc1-3)OCO2` [compound AB31723], the IC50 in [4] is 3.94 µM; in [5], 2.56 µM; in test [6] it was 5.31 µM; in [7], 3.45 µM; in [8] it was 22.6 µM; in [9] it was 21.5 µM. In addition, the IC50 in test [10] is 19.3 µM; in [11], above 50 µM; in test [1] (setting [12]), 3.94 µM; in [2], 8.28 µM; in test [3] it was 8.08 µM.
As for `CCc1c2[n+](cc3c(OC)c(OC)ccc13)CCc1cc3c(cc1-2)OCO3` [compound AB31755], the IC50 in test [1] (setting [12]) was 2.36 µM; in test [2] it was 4.82 µM; in test [3] it was 7.68 µM.
As to `CCCc1c2[n+](cc3c(OC)c(OC)ccc13)CCc1cc3c(cc1-2)OCO3` [compound AB31756], the values for the concentration for half-maximal inhibition (IC50) in [1] (setting [12]), in [2] and in test [3] were 1.01 µM, 2.38 µM and 4.36 µM, respectively.
For the molecule `CCCCCCCCc1c2[n+](cc3c(OC)c(OC)ccc13)CCc1cc3c(cc1-2)OCO3` [compound AB31761], the IC50 turned out to be 0.27 µM in [1] (setting [12]), 0.74 µM in test [2] and 0.98 µM in test [3].
For the molecule `CCCCCCCCCCc1c2[n+](cc3c(OC)c(OC)ccc13)CCc1cc3c(cc1-2)OCO3` [compound AB31762], the IC50 in [1] (setting [12]) is 0.13 µM; in test [2] it was 0.32 µM; in [3], 0.49 µM.
Consider `CCCCCCCCCCCCc1c2[n+](cc3c(OC)c(OC)ccc13)CCc1cc3c(cc1-2)OCO3` [compound AB31763], for which the concentration for half-maximal inhibition (IC50) in test [1] (setting [12]) was determined as 0.08 µM; in [2], 0.31 µM; in test [3], 0.42 µM.
As to `CCCCCCCCCCCC(=O)Oc1c(OC)ccc2cc3[n+](cc12)CCc1cc2c(cc1-3)OCO2` [compound AB31766], the IC50 in test [4] worked out at 2.47 µM; in [5], 1.21 µM; in [6] it was 2.89 µM; in test [7], 1.25 µM; in [8], 15.2 µM; in [9], 13 µM. In addition, the IC50 in test [10] came to 12.9 µM; in test [11] it was 9.12 µM; in test [1] (setting [12]), 2.47 µM; in test [2] it was 4.95 µM; in test [3], 4.84 µM.
Take `CCCCCCCCCCCCc1c2[n+](cc3c(OCCCCCCCCCC)c(OC)ccc13)CCc1cc3c(cc1-2)OCO3` [compound AB31795]: the IC50 in [1] (setting [12]) is 0.24 µM; in test [2], 0.68 µM; in test [3] it was 0.88 µM.
Consider `CCCCCCCCCCCCc1c2[n+](cc3c(OCCCCCCCC)c(OC)ccc13)CCc1cc3c(cc1-2)OCO3` [compound AB31796], for which the results for the concentration for half-maximal inhibition (IC50) in [1] (setting [12]), in [2] and in [3] were 0.27 µM, 0.64 µM and 0.76 µM, respectively.
For `CCCCCCCCCCCCc1c2[n+](cc3c(OCCCCCC)c(OC)ccc13)CCc1cc3c(cc1-2)OCO3` [compound AB31797], in that order: 0.12 µM, 0.54 µM and 0.48 µM.
Turning to `CCCCCCCCCCCCCCc1c2[n+](cc3c(OC)c(OC)ccc13)CCc1cc3c(cc1-2)OCO3` [compound AB31800], the figures for the IC50 in test [1] (setting [12]), in test [2] and in test [3] were 0.22 µM, 0.65 µM and 0.58 µM, respectively.
For `COc1ccc2cc3[n+](cc2c1OC)CCc1cc2c(cc1-3)OCCO2` [compound AB31811], the figures for the IC50 in test [1] (setting [12]), in [2] and in test [3] were 3.12 µM, 7.34 µM and 12.5 µM, respectively.
For the molecule `COc1ccc2cc3[n+](cc2c1OCCCCl)CCc1cc2c(cc1-3)OCO2` [compound AB35483], the IC50 in test [1] (setting [13]) turned out to be 1.26 µM; in test [2], 2.88 µM; in test [3], 5.32 µM.
As for `CCCOc1c(OC)ccc2cc3[n+](cc12)CCc1cc2c(cc1-3)OCO2` [compound AB35511], the figures for the half-inhibitory concentration (IC50) in test [1] (setting [12]), in test [2] and in [3] were 0.61 µM, 1.38 µM and 2.56 µM, respectively.
As for `COc1ccc2cc3[n+](cc2c1OCc1ccc(-c2ccccc2)cc1)CCc1cc2c(cc1-3)OCO2` [compound AB35532], the concentration for half-maximal inhibition (IC50) in test [1] (setting [12]) amounted to 0.34 µM; in test [2], 0.96 µM; in test [3] it was 2.56 µM.
Consider `COc1ccc2cc3[n+](cc2c1OCCBr)CCc1cc2c(cc1-3)OCO2` [compound AB35595], for which the IC50 was 0.68 µM in test [1] (setting [12]), 1.54 µM in test [2] and 3.15 µM in test [3].
On to `COc1ccc2cc3[n+](cc2c1OCCCl)CCc1cc2c(cc1-3)OCO2` [compound AB36404], for which the IC50 in [1] (setting [13]) worked out at 1.06 µM; in [2] it was 2.54 µM; in test [3], 4.86 µM.
Take `CCOc1c(OC)ccc2cc3[n+](cc12)CCc1cc2c(cc1-3)OCO2` [compound AB36412]: the IC50 in test [1] (setting [12]) is 1.17 µM; in [2], 2.58 µM; in test [3], 4.69 µM.
In the case of `COc1c(OCCCCl)ccc2cc3[n+](cc12)CCc1cc2c(cc1-3)OCO2` [compound AB36425], the values for the half-inhibitory concentration (IC50) in [1] (setting [13]), in [2] and in [3] were 0.85 µM, 1.92 µM and 3.88 µM, respectively.
As to `COc1ccc2cc3[n+](cc2c1OCCF)CCc1cc2c(cc1-3)OCO2` [compound AB36484], the values for the IC50 in test [1] (setting [12]), in [2] and in [3] were 1.84 µM, 3.85 µM and 8.32 µM, respectively.
For `[2H]C([2H])([2H])Oc1c(OC)ccc2cc3[n+](c(C4CCCC4)c12)CCc1cc2c(cc1-3)OCO2.[Br-]` [compound AB36508], in that order: 0.56 µM, 1.34 µM and 2.82 µM.

The values above are taken from patent US20250195502A1, “APPLICATION OF TETRACYCLIC COMPOUND IN TREATMENT OF TUMORS” (SHANGHAI SHIJIANG BIOTECHNOLOGY CO., LTD, priority 2022, published 2025).
